From PMC4929166, “Pharmacological evaluation of synthetic cannabinoids identified as constituents of spice” (Forensic Toxicology, 2016)
Where two headings read alike, the source gives them in different places.

Columns and labels:
human GPR55 = target: T1, human GPR55 (Homo sapiens, UniProt Q9Y2T6); experiment: β-Arrestin recruitment assay (PathHunter) at GPR55; type: cell-based; conditions: for IC50: antagonist mode; for Human GPR55 % activation: percent in brackets beside EC50 >10 µM; for Human GPR55 % inhibition: percent in brackets beside IC50
T1 construct: β-galactosidase enzyme fragment (PathHunter complementation tag)
T1 sequence (Q9Y2T6 whole entry, the tested form may be a part): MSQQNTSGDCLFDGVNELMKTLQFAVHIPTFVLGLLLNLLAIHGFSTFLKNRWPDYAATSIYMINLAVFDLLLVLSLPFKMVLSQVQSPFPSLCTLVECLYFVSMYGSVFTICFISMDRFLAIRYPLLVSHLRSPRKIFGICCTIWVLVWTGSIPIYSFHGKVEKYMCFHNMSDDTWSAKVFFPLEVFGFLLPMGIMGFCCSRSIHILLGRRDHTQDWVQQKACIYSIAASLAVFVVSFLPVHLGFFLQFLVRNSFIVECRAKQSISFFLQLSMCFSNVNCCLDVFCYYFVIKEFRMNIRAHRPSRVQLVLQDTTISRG
Method: (§1) Recruitment of β-arrestin to the respective receptor was detected by using β-galactosidase enzyme fragment complementation technology (β-arrestin PathHunter™ assay, DiscoverX, Fremont, CA, USA) as previously described. Data were obtained from three independent experiments, performed in duplicates. Data were analyzed using Graph Pad Prism Version 4.02 (San Diego, CA, USA).

human GPR18 = target: T2, human GPR18 (Homo sapiens, UniProt Q14330); experiment: β-Arrestin recruitment assay (PathHunter) at GPR18; type: cell-based; conditions: for Human GPR18 % activation: percent in brackets beside EC50 >10 µM; for Human GPR18 % inhibition: percent in brackets beside IC50
T2 construct: β-galactosidase enzyme fragment (PathHunter complementation tag)
T2 sequence (Q14330 1-331): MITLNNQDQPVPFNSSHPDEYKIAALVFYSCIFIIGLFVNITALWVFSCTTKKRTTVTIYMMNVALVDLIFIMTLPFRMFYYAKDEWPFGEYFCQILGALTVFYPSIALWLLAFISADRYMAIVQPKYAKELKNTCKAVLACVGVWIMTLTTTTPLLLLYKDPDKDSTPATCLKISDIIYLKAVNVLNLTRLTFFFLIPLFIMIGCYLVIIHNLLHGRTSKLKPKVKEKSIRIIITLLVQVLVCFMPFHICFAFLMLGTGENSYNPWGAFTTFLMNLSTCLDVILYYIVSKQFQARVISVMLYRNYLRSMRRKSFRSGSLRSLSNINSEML
Method: as §1

Human CB1 = conditions: read-out: EC50 Human CB1 (literature, functional assay) (converted), cited from earlier work
Human CB2 = conditions: read-out: EC50 Human CB2 (literature, functional assay) (converted), cited from earlier work
CB1 receptor [1] = target: T3, CB1 receptor (Homo sapiens, UniProt P21554); experiment: biochemical; type: binding; set-up: expressed in transfected cells; host or cells: CHO cells (membrane preparation); conditions: for Ki: versus 0.1 nM [3H]CP55,940, CHO cell membranes, mean ± SEM of three to five experiments, read-out: Ki ± SEM Human CB1; for CB1 selectivity Ki CB2/KiCB1: Table S1, selectivity index from Ki values
T3 sequence (P21554 whole entry): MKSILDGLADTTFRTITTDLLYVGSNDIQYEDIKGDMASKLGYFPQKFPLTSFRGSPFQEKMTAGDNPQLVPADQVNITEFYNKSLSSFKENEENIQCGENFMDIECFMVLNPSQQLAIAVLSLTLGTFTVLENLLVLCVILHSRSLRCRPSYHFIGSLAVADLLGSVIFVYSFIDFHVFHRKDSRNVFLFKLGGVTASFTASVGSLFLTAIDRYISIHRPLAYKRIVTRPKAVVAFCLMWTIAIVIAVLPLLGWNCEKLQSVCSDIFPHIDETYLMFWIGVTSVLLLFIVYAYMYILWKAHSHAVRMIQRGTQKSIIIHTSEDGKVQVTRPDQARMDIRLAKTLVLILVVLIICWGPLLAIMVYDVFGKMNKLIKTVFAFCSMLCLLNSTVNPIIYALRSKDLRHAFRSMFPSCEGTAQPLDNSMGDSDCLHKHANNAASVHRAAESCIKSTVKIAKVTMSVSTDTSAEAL

CB2 receptor [2] = target: T4, CB2 receptor (Homo sapiens, UniProt P34972); experiment: biochemical; type: binding; set-up: expressed in transfected cells; host or cells: CHO cells (membrane preparation); conditions: for Ki: versus 0.1 nM [3H]CP55,940, CHO cell membranes, mean ± SEM of three to five experiments, read-out: Ki ± SEM Human CB2
T4 sequence (P34972 whole entry): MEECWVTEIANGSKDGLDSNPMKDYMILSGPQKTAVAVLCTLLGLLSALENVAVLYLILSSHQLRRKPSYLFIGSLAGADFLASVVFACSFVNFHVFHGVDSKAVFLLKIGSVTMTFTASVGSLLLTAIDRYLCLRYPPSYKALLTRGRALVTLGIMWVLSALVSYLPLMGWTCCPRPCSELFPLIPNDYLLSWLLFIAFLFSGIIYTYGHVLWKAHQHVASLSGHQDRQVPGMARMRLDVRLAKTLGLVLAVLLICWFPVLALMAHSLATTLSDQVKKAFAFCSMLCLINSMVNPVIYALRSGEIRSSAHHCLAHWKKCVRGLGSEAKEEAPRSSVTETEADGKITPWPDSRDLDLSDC

CB1 receptor [3] = target: T3, CB1 receptor; experiment: cell-based; type: cell-based; set-up: expressed in transfected cells; host or cells: CHO cells; conditions: cAMP accumulation, forskolin 10 µM; test concentration 1 µM or 10 µM; normalized to CP55,940
CB2 receptor [4] = target: T4, CB2 receptor; experiment: cAMP accumulation assay in CHO cells expressing CB2; type: cell-based; set-up: expressed in transfected cells; host or cells: CHO cells; conditions: cAMP accumulation, forskolin 10 µM, normalized to CP55,940; for efficacy at CB2 receptor (in words): test concentration 1 µM or 10 µM
[5] = Human GPR55 IC50, β-arrestin assay
[6] = Table S1, selectivity index from Ki values

Row | SMILES | EC50 (human GPR55) | IC50 (human GPR55; [5]) | Human GPR55 % activation (human GPR55; β-arrestin assay) | Human GPR55 % inhibition (human GPR55; β-arrestin assay) | EC50 (human GPR18) | IC50 (human GPR18) | Human GPR18 % activation (human GPR18; β-arrestin assay) | Human GPR18 % inhibition (human GPR18; β-arrestin assay) | Ki (CB1 receptor [1]) | CB2 selectivity Ki CB1/KiCB2 (CB2 receptor [2]; [6]) | Ki (CB2 receptor [2]) | efficacy at CB1 receptor (in words) (CB1 receptor [3]) | other results
1 | CCCCCn1nc(C(=O)Oc2cccc3ccccc23)c2ccccc21 [Compound 22, SDB-005] | > 10000 nM | > 10000 nM | 8% | 23% | > 10000 nM | > 10000 nM | 15% | 24% | 3.59 ± 0.89 nM | 1.4 | 2.61 ± 1.07 nM |  | EC50 (Human CB1; ref Banister et al. [28]): 116 nM; EC50 (Human CB2; ref Banister et al. [28]): 140 nM
2 | CCCCCn1cc(C(=O)NC23CC4CC(CC(C4)C2)C3)c2ccccc21 [Compound 15, APICA] | > 10000 nM | 4770 ± 1690 nM | 11% |  | > 10000 nM | > 10000 nM | 8% | 44% | 6.52 ± 3.73 nM |  | 1.22 ± 0.14 nM |  | EC50 (Human CB1; ref Banister et al. [28]): 128 nM; EC50 (Human CB2; ref Banister et al. [28]): 29 nM; CB2 selectivity Ki CB1/KiCB2 (CB2 receptor [2]): 5.3
3 | O=C(Nc1ccc2ccccc2c1)c1cn(CCCCCF)c2ccccc12 [Compound 7, 5F-NNEI-2-naphthyl-isomer] | > 10000 nM | > 10000 nM | 19% | 20% | > 10000 nM | > 10000 nM | 9% | 5% | 235 ± 15 nM | 1.0 | 226 ± 24 nM | lower efficacy than Δ^9-THC | efficacy at CB2 receptor (in words) (CB2 receptor [4]): lower efficacy than Δ^9-THC; fold decrease of affinity when naphthyl is linked in 2-position (CB1 receptor [1]; CB1, compared with 5F-NNEI (5)): about 100 fold; CB1 selectivity Ki CB2/KiCB1 (CB1 receptor [1]): 1.0; inhibition at 30 µM (CB2 receptor [2]; at 30 µM, read-out: Maximal inhibition of radioligand binding, human CB2): 80%
4 | CCCCCn1cc(C(=O)C23CC4CC(CC(C4)C2)C3)c2ccccc21 [Compound 35, AB001] | > 10000 nM | ~10000 nM | −14% | 56% | > 10000 nM | ~10000 nM | −12% | 62% | 33 ± 7.42 nM | 19.2 | 1.72 ± 0.15 nM |  | EC50 (Human CB1; ref Banister et al. [46]): 35 nM; EC50 (Human CB2; ref Banister et al. [46]): 45 nM
5 | CCCCCc1cc(O)c2c(c1)OC(C)(C)[C@@H]1CCC(C)=C[C@@H]21 [Compound 1, Δ^9-tetrahydrocannabinol, reference compound] |  |  |  |  |  |  |  |  |  |  |  |  | activation of CB2 receptor compared to full agonist CP55,940 (CB2 receptor [4]): 60–70%
6 | CN1CCCCC(Cn2cc(C(=O)C3C(C)(C)C3(C)C)c3ccccc32)C1 (stereo not drawn) [Compound 44, AB005-azepane-isomer] |  |  | 21% | 18% |  |  | 11% | −6% | > 10000 nM | 47.2 | 212 ± 55 nM | did not activate | EC50 (human GPR55; read-out: Human GPR55 EC50, β-arrestin assay, agonist mode): > 10000 nM; IC50 (human GPR55; read-out: Human GPR55 IC50, β-arrestin assay): > 10000 nM; EC50 (human GPR18; read-out: Human GPR18 EC50, β-arrestin assay, agonist mode): > 10000 nM; IC50 (human GPR18; read-out: Human GPR18 IC50, β-arrestin assay, antagonist mode): > 10000 nM; efficacy at CB2 receptor (in words) (CB2 receptor [4]): did not activate; affinity for the CB1 receptor (in words) (CB1 receptor [1]; at concentrations up to 10 µM): no affinity; inhibition of radioligand binding at human CB1 (percent in brackets) (CB1 receptor [1]; printed in brackets beside Ki ~/>10,000 nM, concentration not given): 13%
7 | CCc1ccc(C(=O)c2cn(CCCCCF)c3ccccc23)c2ccccc12 [Compound 31, EAM-2201] | > 10000 nM | 1860 ± 160 nM | −24% |  | > 10000 nM | > 10000 nM | 14% | 4% | 0.38 ± 0.111 nM | 1.0 | 0.371 ± 0.052 nM | higher efficacy than the full agonist CP55,940 | CB1 selectivity Ki CB2/KiCB1 (CB1 receptor [1]): 1.0
